Test system: Dottersackgefäßsystem von Hühnerembryonen
Test: animal or person
Conditions: for Hemmung: time point not stated
Text: Cyproheptadin (Peritol®) wird aufgrund seiner zentralen Wirkung als Appetitsstimulanz in der Klinik verwendet. Als Nebenwirkungen waren bisher im wesentlichen sedierende Effekte bekannt. […] Zur Wirkungsanalyse wurde die Gefäßentwicklung der Dottersackmembran von befruchteten Hühnereiern benutzt. Das Modell hat den Vorteil, daß die Entwicklung dieses primären Gefäßsystems der Hühnerembryonen Kapillaren erzeugt, die eine große Ähnlichkeit mit Tumorgefäßen haben. Diese Kapillaren sind stärker fenestriert und sind anatomisch den Tumorvaskularitäten ähnlich.
Bei 30 ex ovo bebrüteten Hühnereiern werden jeweils auf zwei Bereiche des Dottersackgefäßsystems 1,5 µl eines 3%igen Traganth-Gels, in dem Cyproheptadin in der zu untersuchenden Konzentration eingebracht wurde, appliziert. Bei weiterer Bebrütung in einem Sterilinkubator bei 37°C und 85% Luftfeuchtigkeit entwickeln sich die pre- bzw. postkapillären Gefäßstrukturen der Dottersackvaskularitäten, die 9 h und 24 h post applicationem semiquantitativ bewertet werden.
Ebenfalls nach 9 h und 24 h werden die Applikationsstellen bewertet.

CN1CCC(=C2c3ccccc3C=Cc3ccccc32)CC1 [Cyproheptadin]
Wirkung 24 h nach Applikation (24 h values compared with 9 h values): in leicht abgeschwächter Form noch vorhanden | Emax (Gallus gallus, read-out: maximale Wirkungsstärke): 76% | Hemmung der Dottersackangiogenese, wirksame Konzentrationen (effective concentration range in words): in nanomolaren Konzentrationen | Hemmung (single substance at its IC 25 concentration): 20,3% | Hemmung (single substance at its IC 50 concentration): 37,9% | Hemmung (single substance at its IC 75 concentration): 65,8% | Hemmung (single substance at its IC 100 concentration): 76,6% | Angiogenese bei sehr hohen Konzentrationen (very high concentrations): totale Verhinderung einer Angiogenese
